Data reported in PMC4476799, “Englerin A Agonizes the TRPC4/C5 Cation Channels to Inhibit Tumor Cell Line Proliferation” (PLoS ONE, 2015).
Where two headings read alike, the source gives them in different places.

Tested on: cancer cell lines from the cancer cell line encyclopedia (CCLE)
Experiment: Cell line profiling (CLiP) proliferation experiment
Type: cell-based
Conditions: Homo sapiens; for IC50: read-out: Crossing Point; for EC50: read-out: Inflection Point
Method: Compound profiling experiment and data analysis was performed as previously described. Data was imported and plotted using the Tibco Spotfire DXP application. Lines were categorized as sensitive, intermediate and refractory as follows: Amax<-40 & Inflection Point <2 ~ Sensitive, Amax>-20 & Inflection Point >10 ~ Refractory, all else were called Intermediate. Cancer Cell line HG-U133 Plus 2 data was processed and normalized as described. […] Five sets of refractory cell lines were generated from the pool of refractory cell lines trying to match the lineage composition of the set of sensitive cell lines. The limma package was used as previously described to perform the statistical comparison.

[1] = RS4-11, RS4;11 (haematopoietic_and_lymphoid_tissue)
[2] = RS4-11, cell line RS4;11, haematopoietic_and_lymphoid_tissue, acute_lymphoblastic_B_cell_leukaemia
[3] = RT-112, cell line RT-112, urinary_tract, transitional_cell_carcinoma
[4] = RVH-421, cell line RVH-421, skin
[5] = SCaBER, cell line SCaBER, urinary_tract, transitional_cell_carcinoma
[6] = SET-2, cell line Set-2, haematopoietic_and_lymphoid_tissue, essential_thrombocythaemia
[7] = SF-126, cell line SF126, central_nervous_system, astrocytoma
[8] = SHP77, cell line SHP-77, lung, small_cell_carcinoma
[9] = SJRH30, cell line SJRH30, soft_tissue
[10] = SK-CO-1, cell line SK-CO-1, large_intestine, adenocarcinoma
[11] = SK-ES1, cell line SK-ES-1, bone
[12] = SK-MEL-24, cell line SK-MEL-24, skin
[13] = SK-MES-1, cell line SK-MES-1, lung, squamous_cell_carcinoma
[14] = SK-N-SH, cell line SK-N-SH, autonomic_ganglia
[15] = SKM-1, cell line SKM-1, haematopoietic_and_lymphoid_tissue, acute_myeloid_leukaemia

With `CC(C)[C@@]12C[C@@H](O)[C@@](C)(O1)[C@@H]1CC[C@@H](C)[C@H]1[C@@H]2OC(=O)/C=C/c1ccccc1` [Englerin B] the IC50 [1] was 17.9 µM, the EC50 [1] was 17.9 µM and the IC50 [2] was 17.9 µM. It also gave an EC50 [2] of 17.9 µM, an IC50 (RT-112, RT-112 cells) of 16.7 µM and an EC50 (RT-112, RT-112 cells) of 16.7 µM. For the same molecule, the IC50 [3] was 16.7 µM, the EC50 [3] was 16.7 µM and the IC50 (RVH-421, RVH-421 cells) was > 30 µM. For the same molecule, the EC50 (RVH-421, RVH-421 cells) was 11.6 µM, the IC50 [4] was > 30 µM and the EC50 [4] was 11.6 µM. It also gave an EC50 (Raji, Raji cells) of 18.4 µM, an IC50 (Raji, cell line Raji) of 17.6 µM and an EC50 (Raji, cell line Raji) of 18.4 µM. For the same molecule, the IC50 (Rec1, REC-1 cells) was 18.4 µM, the EC50 (Rec1, REC-1 cells) was 18.4 µM and the IC50 (Rec1, cell line REC-1) was 18.4 µM. For the same molecule, the EC50 (Rec1, cell line REC-1) was 18.4 µM, the IC50 (Rh18, RH-18 cells) was > 30 µM and the IC50 (Rh18, cell line RH-18) was > 30 µM. It also gave an EC50 (Rh41, RH-41 (soft_tissue)) of 11.6 µM, an IC50 (Rh41, cell line RH-41) of 11.6 µM and an EC50 (Rh41, cell line RH-41) of 11.6 µM. For the same molecule, the IC50 (SCaBER, SCaBER (urinary_tract)) was > 30 µM, the EC50 (SCaBER, SCaBER (urinary_tract)) was 12.9 µM and the IC50 [5] was > 30 µM. The EC50 [5] was 12.9 µM, the EC50 (SET-2, Set-2 (haematopoietic_and_lymphoid_tissue)) was 22.9 µM and the IC50 [6] was 15.9 µM. For the same molecule, the EC50 [6] was 22.9 µM, the EC50 (SF-126, SF126 cells) was 12.3 µM and the IC50 [7] was 23.2 µM. For the same molecule, the EC50 [7] was 12.3 µM, the IC50 (SF-295, cell line SF-295, central_nervous_system, astrocytoma_Grade_IV) was 19.8 µM and the IC50 (SHP77, SHP-77 cells) was > 30 µM. For the same molecule, the EC50 (SHP77, SHP-77 cells) was 14.5 µM, the IC50 [8] was > 30 µM and the EC50 [8] was 14.5 µM. It also gave an IC50 [9] of 17.4 µM, an EC50 [9] of 15.5 µM and an EC50 (SJSA-1, SJSA-1 cells) of 16.1 µM. The IC50 (SJSA-1, cell line SJSA-1, bone) was 29.1 µM, the EC50 (SJSA-1, cell line SJSA-1, bone) was 16.1 µM and the IC50 (SK-BR-3, SK-BR-3 cells) was > 30 µM. The IC50 (SK-BR-3, cell line SK-BR-3, breast) was > 30 µM, the EC50 (SK-CO-1, SK-CO-1 (large_intestine)) was 11.6 µM and the IC50 [10] was 17.8 µM. The EC50 [10] was 11.6 µM, the IC50 [11] was 21.6 µM and the EC50 [11] was 20.4 µM. For the same molecule, the IC50 (SK-LMS-1, SK-LMS-1 cells) was > 30 µM, the IC50 (SK-LMS-1, cell line SK-LMS-1, soft_tissue) was > 30 µM and the IC50 (SK-LU-1, SK-LU-1 (lung)) was > 30 µM. The IC50 (SK-LU-1, cell line SK-LU-1, lung, adenocarcinoma) was > 30 µM, the IC50 (SK-MEL3, SK-MEL-3 cells) was > 30 µM and the IC50 (SK-MEL3, cell line SK-MEL-3, skin) was > 30 µM. For the same molecule, the IC50 (SK-MEL-1, cell line SK-MEL-1, skin) was 19.6 µM, the IC50 (SK-MEL-2, SK-MEL-2 (skin)) was > 30 µM and the IC50 (SK-MEL-2, SK-MEL-2, second row, PRIMARY_SITE (Empty)) was > 30 µM. The IC50 (SK-MEL-2, cell line SK-MEL-2, skin) was > 30 µM, the IC50 (SK-MEL-5, SK-MEL-5 (skin)) was > 30 µM and the IC50 (SK-MEL-5, cell line SK-MEL-5, skin) was > 30 µM. The IC50 (SK-MEL-24, SK-MEL-24 (skin)) was > 30 µM, the IC50 [12] was > 30 µM and the EC50 [12] was 11.1 µM. The IC50 (SK-MEL-30, cell line SK-MEL-30, skin) was 28 µM, the EC50 (SK-MES-1, SK-MES-1 cells) was 25 µM and the IC50 [13] was 26.5 µM. The EC50 [13] was 25 µM, the IC50 (SK-N-AS, SK-N-AS (autonomic_ganglia)) was > 30 µM and the IC50 (SK-N-AS, cell line SK-N-AS, autonomic_ganglia) was > 30 µM. For the same molecule, the IC50 (SK-N-DZ, SK-N-DZ cells) was > 30 µM, the IC50 (SK-N-DZ, cell line SK-N-DZ, autonomic_ganglia) was > 30 µM and the IC50 (SK-N-FI, SK-N-FI (autonomic_ganglia)) was > 30 µM. The IC50 (SK-N-FI, cell line SK-N-FI, autonomic_ganglia) was > 30 µM, the IC50 (SK-N-SH, cell line SK-N-SH (autonomic_ganglia, NS)) was > 30 µM and the IC50 [14] was > 30 µM. For the same molecule, the EC50 [14] was 7.74 µM, the IC50 (SK-OV-3, SK-OV-3 (ovary)) was > 30 µM and the IC50 (SK-OV-3, cell line SK-OV-3, ovary, adenocarcinoma) was > 30 µM. The IC50 (SK-UT-1, SK-UT-1 (soft_tissue)) was > 30 µM, the IC50 (SK-UT-1, cell line SK-UT-1, soft_tissue) was > 30 µM and the IC50 [15] was 21.1 µM. For the same molecule, the EC50 [15] was 24.5 µM, the IC50 (SKM-1, cell line SKM-1) was 21.1 µM and the IC50 (SKNBE2, cell line SK-N-BE(2), autonomic_ganglia) was > 30 µM. The IC50 (SKNBE2, cell line SK-N-BE(2)) was > 30 µM, the IC50 (SNB-19, SNB-19 cells) was > 30 µM and the IC50 (SNB-19, cell line SNB-19, central_nervous_system, astrocytoma_Grade_IV) was > 30 µM. For the same molecule, the IC50 (SNU1, SNU-1 (stomach)) was > 30 µM and the EC50 (SNU1, SNU-1 (stomach)) was 12.1 µM.
